Data on one compound can be found in US12728173B2, “Heptamethine cyanine near-infrared fluorescent dye, preparation method therefor and use thereof” (NANJING NUOYUAN MEDICAL DEVICES CO., LTD, priority 2024, dated 2026).

The nature of data set [1]: Subcutaneous HepG2 tumor-bearing mouse models for in vivo imaging. The following applies: tail vein, 0.5 mg/kg. The procedure: Subcutaneous HepG2 Tumor-Bearing Mouse Models (Human-Derived Liver Cancer Cells) for In Vivo Imaging
Test samples: the heptamethine cyanine near-infrared fluorescent dyes provided by Examples 1-4, and the heptamethine cyanine near-infrared fluorescent dyes provided by Comparative Examples 1-3.
Testing method: The subcutaneous HepG2 tumor-bearing mouse models were subjected to tail vein administration of the above samples (0.5 mg/kg, 100 μL of glucose injection), respectively. Indocyanine green (0.5 mg/kg, 100 μL of glucose injection) was taken as a control. After the administration, fluorescence imaging was performed using a surgical fluorescence imaging system (NANJING NUOYUAN MEDICAL DEVICES CO., LTD, 10B), at 0 h (before administration), 6 h, 12 h, 24 h, and 48 h in sequence.

The subject of the next data set is tumor tissues. The following applies: prior art CN111196896A; cited from earlier work.

`CC1(C)C(/C=C/C2=C(Cl)C(=C/C=C3/N(CCCS(=O)(=O)O)c4ccccc4C3(C)C)/CCC2)=[N+](CCCS(=O)(=O)O)c2ccc(S(=O)(=O)O)cc21` [Comparative Example 1]: the “hepatic accumulation and metabolism” value in data set [1] is “hepatic accumulation and non-metabolism”. For the same compound, in the data set on tumor tissues, the hepatic accumulation result was “deficiency of hepatic accumulation”, the tumor retention entry is “exceeding 48 h” and the “tumor targeting capability compared with ICG” value is recorded as “stronger”.
